Source: patent EP1247803A2, “Indolinone compounds suitable for modulation of protein kinases” (Sugen, Inc., priority 1996, dated 1998)

Key:
EGFR = biological target: T1, EGFR (Homo sapiens, UniProt P00533); experiment: EGFR ELISA assay (in vitro kinase activity, EGFR captured from A431 cell lysate); type: biochemical; design: concentration or dose not given beside the values
T1 construct: Add 7 ug A431 cell lysate per well (EGFR source); endogenous in cells; host or cells: A431
Description: To provide a consistent method for measuring the in vitro kinase activity of the EGFR in an Enzyme-linked immunosorbent assay (Elisa).
Scope. The following protocol describes the procedures used to analyze protein tyrosine kinase activity on the EGFR in an Elisa. The procedure also describes the protocol for the initial screening of drugs for inhibition or activation of protein tyrosine kinase activity.
Reagents and Supplies. • 1. […] 05-101 monoclonal anti-EGFR antibody (commercially available from UB1) -80° C, 1 ml aliquots • 3. […] TBST Buffer Formulation: 50 mM Tris pH 7.2 150 mM NaCl 0.1% Triton X-100 • 5. Blocking Buffer Formulation: 5% Carnation Instant Milk in PBS • 6. A431 cell lysate A431 cells are available from a variety of commercial sources and may be used lysed using conventional methods known to those skilled in the art or as described for lysis of the 3T3 cells in the EGF cellular assay described herein. -80° C, 1 ml aliquots • 7. TBS Buffer Formulation: 50 mM Tris pH 7.2 150 mM NaCl • 8. […] NUNC 96-well V bottom polypropylene plates Applied Scientific Catalog # AS-72092 • 11. EDTA Formulation: 200 mM EDTA pH 8.0 • 12. […] Goat anti-rabbit IgG peroxidase conjugate Biosource Catalog # ALI0404 • 14. ABTS Solution Formulation: 100 mM Citric Acid (anhydrous) 250 mM Na2HPO4 pH 4.0 0.5 mg/ml ABTS (2,2'-azino-bis(3-ethylbenzthiazoline-6-sulfonic acid) (Sigma Catalog # A-1888) Keep solution in dark at 4 C until ready to use • 15. Hydrogen peroxide 30% solution Fisher Catalog # H325 Store in the dark at 4 C until ready to use • 16. ABTS/H2O2 Formulation: 15 mls ABTS solution 2 ul H2O2 Prepare 5 minutes before use and room temperature • 17. 0.2 M HCL stock in H2O Procedure. • 1. Coat Corning 96-well elisa plates with 0.5 ug per well 05-101 antibody. Bring final volume to 100 ul per well with PBS. Coat plates overnight at 4° C. • 2. Remove unbound 05-101 from wells by inverting plate to remove liquid. Wash 1x with distilled H2O by filling wells Pat the plate on a paper towel to remove excess liquid. • 3. Block plates with 5% milk in PBS. 150 ul per well. Incubate plate 30 minutes while shaking on a microtiter plate shaker. • 4. Wash plate 3x with dionized water, then once with TBST • 5. Add 7 ug A431 cell lysate per well (EGFR source). Add PBS to final volume of 100 ul per well Incubate 30 minutes while shaking. • 6. Wash as described in step 4. • 7. At this point, drugs or extracts are added to the wells. Dilute drugs/extracts 1:100 (unless specified otherwise) in TBS + 10% DMSO in 96-well polypropylene plates. Add 120 ul TBS to ELISA plate containing captured EGFR. Add 13.5 ul diluted drugs/extracts to ELISA plate. […] Incubate plate 30 minutes while shaking. • 8. […] (150 ul final volume in well with 3 uM ATP/5 mM MnCl2 final concentration in well.) Incubate 5 minutes while shaking vigorously. *NOTE: It is critical that ATP/MnCl2 phosphorylates the receptor for 5 minutes only. It is best to add the ATP/MnCl2 with an 12 channel pipettor 1 row at a time leaving 20 seconds between each row so that the reaction may be stopped with EDTA exactly 5 minutes later (this depends on the number of plates being phosphorylated in one batch). Shake between each addition. • 9. After 5 minutes, to stop reaction, add 16.5 ul of 200 mM EDTA pH 8.0 for 20 mM final in well, shaking continuously between each addition. This is done using the same timing method as above. After last row has received EDTA, shake plate an additional minute. • 10. Wash 4x with deionized water, twice with TBST. • 11. Add rabbit polyclonal anti-phosphotyrosine serum. Dilute 1:3000 in TBST. Add 100 ul per well. Incubate 30-45 minutes while shaking. • 12. Wash as described above in step 4. • 13. Add BioSource anti-rabbit peroxidase conjugate antibody. Dilute 1:2000 in TBST. Add 100 ul per well. Incubate 30 minutes while shaking. • 14. Wash as described in step 4. • 15. Add 100 ul of ABTS/H2O2 solution to well. Incubate 5 to 10 minutes while shaking. Remove bubbles • 16. […]

MET = MET biochemical kinase assay; design: species or system human; concentration or dose not given beside the values
Description: A met biochemical kinase assay may be performed for met generally as described above for other kinases by substituting that or the other kinases. In particular, ELISA plates are coated with goat anti-rabbit Fc antibodies, which are used to capture commercially available (from Santa Cruz Biotechnology) rabbit polyclonal antibodies to the cytoplasmic domain of human MET. […] The chimeric receptors, or MET, from these lysates are captured on the antibody coated plates. After washing away extraneous proteins, test compounds are added and an in vitro kinase assay is performed by addition of an appropriate kinase buffer (containing ATP, divalent metal ions, etc.). Incorporation of phosphate into the captured receptors is detected with an anti-phosphotyrosine antibody conjugate with horse radish peroxidase using TMB as a substrate for colorimetric detection.

T1 sequence (P00533 25-1210): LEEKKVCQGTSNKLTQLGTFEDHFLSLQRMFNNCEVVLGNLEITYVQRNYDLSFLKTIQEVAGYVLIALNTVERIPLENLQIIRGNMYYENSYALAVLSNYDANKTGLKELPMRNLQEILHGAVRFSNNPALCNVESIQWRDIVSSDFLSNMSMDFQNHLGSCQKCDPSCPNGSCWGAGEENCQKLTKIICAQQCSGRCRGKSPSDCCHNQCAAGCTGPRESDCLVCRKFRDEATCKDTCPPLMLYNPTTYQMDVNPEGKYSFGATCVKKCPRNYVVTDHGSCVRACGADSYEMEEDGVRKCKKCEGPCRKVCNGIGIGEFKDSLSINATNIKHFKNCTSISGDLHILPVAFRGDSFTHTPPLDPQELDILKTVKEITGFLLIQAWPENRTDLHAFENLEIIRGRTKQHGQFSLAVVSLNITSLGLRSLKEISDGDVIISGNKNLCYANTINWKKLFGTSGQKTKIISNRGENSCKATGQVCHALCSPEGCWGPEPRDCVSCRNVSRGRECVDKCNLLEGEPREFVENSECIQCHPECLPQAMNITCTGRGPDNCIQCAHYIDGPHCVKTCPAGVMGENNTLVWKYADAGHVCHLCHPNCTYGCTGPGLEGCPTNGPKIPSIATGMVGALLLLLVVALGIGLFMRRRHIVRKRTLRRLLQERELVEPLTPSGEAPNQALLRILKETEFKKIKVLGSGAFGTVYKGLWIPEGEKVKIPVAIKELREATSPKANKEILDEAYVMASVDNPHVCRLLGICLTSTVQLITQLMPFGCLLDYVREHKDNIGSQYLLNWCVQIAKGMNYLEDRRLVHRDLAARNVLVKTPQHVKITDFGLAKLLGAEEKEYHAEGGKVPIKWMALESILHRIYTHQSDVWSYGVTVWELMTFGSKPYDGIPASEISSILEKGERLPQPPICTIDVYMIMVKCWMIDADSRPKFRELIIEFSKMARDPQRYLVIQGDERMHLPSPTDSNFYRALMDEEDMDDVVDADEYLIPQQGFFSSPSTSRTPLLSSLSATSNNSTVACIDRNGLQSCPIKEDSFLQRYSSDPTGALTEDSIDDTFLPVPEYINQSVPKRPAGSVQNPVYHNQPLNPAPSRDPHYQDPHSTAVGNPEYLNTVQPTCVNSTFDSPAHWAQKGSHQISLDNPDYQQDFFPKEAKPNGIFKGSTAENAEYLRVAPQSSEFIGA

Row | Structure (SMILES) | Biochem EGFR %Inhibition (EGFR) | Met Kinase % Inhibition (MET)
1 | COc1c(C(C)C)cc(C=C2C(=O)Nc3ccc(I)cc32)cc1C(C)C [10732/B03] | -15.3% | 58.1%
2 | COc1c(Cl)cc(C=C2C(=O)Nc3ccc(Br)c(C)c32)cc1C(C)(C)C [10732/C09] | -3.9% | 37.9%
3 | CC(C)c1cc(C=C2C(=O)Nc3ccc(I)cc32)cc(C(C)C)c1Oc1ccccc1 [10732/B04] | -22.1% | 79.5%
4 | COc1c(I)cc(C=C2C(=O)Nc3ccc(I)cc32)cc1C(C)(C)C [10732/B11] | 9.3% | 73.7%
5 | COc1c(Br)cc(C=C2C(=O)Nc3ccc(Br)c(C)c32)cc1C(C)(C)C [10732/C07] | -28.6% | 26.5%
6 | Cc1c(Br)ccc2c1C(=Cc1ccc([N+](=O)[O-])o1)C(=O)N2 [10718/C11] | -0.2% | 10.1%
7 | CC(C)(C)c1cc(C=C2C(=O)Nc3ccc(I)cc32)cc(Br)c1OCc1ccccc1 [10732/B08] | 7.8% | 64.4%
8 | Cc1cc2occ(C=C3C(=O)Nc4ccc(S(=O)(=O)N5CCOCC5)cc43)c(=O)c2cc1C [10731/F03] | 8.4% | 40.6%
9 | Cc1c(Br)ccc2c1C(=Cc1ccco1)C(=O)N2 [10718/C10] | -18.7% | 4.4%
10 | CCOC(=O)CCc1c(C(=O)OCC)[nH]c(C=C2C(=O)Nc3ccc(S(=O)(=O)NC)cc32)c1CC(=O)OCC [10718/D05] | 2.8% | 10.6%
11 | CNS(=O)(=O)c1ccc2c(c1)C(=Cc1cc(Br)c(OC)c(C(C)(C)C)c1)C(=O)N2 [10732/D07] | -19.1% | 43.2%
12 | CNS(=O)(=O)c1ccc2c(c1)C(=Cc1ccc3ccccc3c1O)C(=O)N2 [10718/D04] | 52.0% | 92.9%
13 | CCOC(=O)c1c(C)[nH]c(C=C2C(=O)Nc3ccc(S(=O)(=O)NC)cc32)c1C [10718/D02] | 14.4% | 32.0%
14 | CC(C)(C)c1cc(C=C2C(=O)Nc3ccc(I)cc32)ccc1OCc1ccccc1 [10732/B06] | 12.8% | 74.3%
15 | O=C1Nc2ccc(CCCl)cc2C1=Cc1coc2ccc([N+](=O)[O-])cc2c1=O [10731/G07] | 0.7% | 10.9%
16 | CNS(=O)(=O)c1ccc2c(c1)C(=Cc1c[nH]c3ccc(OC)cc13)C(=O)N2 [10731/D09] | 12.6% | 23.9%
17 | O=C1Nc2ccc(CCCl)cc2C1=Cc1c[nH]c(=O)[nH]c1=O [10731/G08] | 13.3% | 19.5%
18 | CC(C)c1cc(C=C2C(=O)Nc3c(Br)cc(Br)cc32)cc(C(C)C)c1Oc1ccccc1 [10732/A04] | -10.6% | 34.8%
19 | COc1ccc2[nH]cc(C=C3C(=O)Nc4ccc(S(=O)(=O)N5CCOCC5)cc43)c2c1 [10731/F09] | -0.7% | 20.5%
